Assay results as given in patent US12383545B1, “Treatment of migraine” (priority 2018, dated 2025).

Tests used:
[1] = test system: ALT or AST; experiment: Study A: postbaseline hepatic laboratory parameters (ALT or AST, potential Hy's Law); format: in vivo, human; conditions: safety population; for ALT or AST >=1 * ULN, n/N1 (%) / ALT or AST >=1.5 * ULN, n/N1 (%) / ALT or AST >=2 * ULN, n/N1 (%) / ALT or AST >=5 * ULN, n/N1 (%) / ALT or AST >=10 * ULN, n/N1 (%) / ALT or AST >=20 * ULN, n/N1: postbaseline
Experimental: Adverse events were reported by participants throughout the trial, and at a 4-week follow-up visit. Adverse event information was collected and documented during each clinic visit. Participants could also report adverse events via telephone call between visits. Causality of each adverse event was determined by the investigator who was blinded to the treatment. In addition, clinical laboratory tests, vital signs, electrocardiograms (ECG), and Columbia-Suicide Severity Rating Scale were evaluated. Based on the potential hepatotoxicity of prior gepants, treatment-emergent elevations in ALT or AST ≥3 times the upper limit of normal, as well as potential Hy's law cases, were evaluated as prespecified adverse events of special interest and were reviewed by an independent panel of liver experts blinded to treatment (see, e.g., Negro A et al., CGRP Receptor Antagonists: an expanding drug class for acute migraine? Expert Opin Investig Drugs 2012; 21:807-18; Messina R et al., CGRP—a target for acute therapy in migraine: Clinical Data. Cephalalgia 2019; 39:420-7).
There were no hepatic safety issues identified in this trial. ALT and/or AST increases were low across all atogepant doses and occurred at a lower rate than placebo. […] No cases of liver disease were reported, and no case met the criteria for potential Hy's Law following daily dosing for 12 weeks.

[2] = test system: participants with episodic migraine; experiment: Study B: HIT-6 total score and responder rates; format: in vivo, human; parameters: key to Change from Baseline in HIT-6 Total Score, LS Mean Δ from baseline: points on HIT-6 total score (range 36–78); negative = improvement; conditions: for HIT-6 total score, LS mean change (95% confidence interval) / proportion of HIT-6 responders (≥5 points from baseline): Study B, 60 mg QD; for Change from Baseline in HIT-6 Total Score, LS Mean Δ from baseline / HIT-6 Total Score Responder Rates, % Responder: atogepant 60 mg; for Change from Baseline in HIT-6 Total Score, LS Mean Δ from baseline: mITT Population; for HIT-6 Total Score Responder Rates, % Responder: responder = ≥5 point improvement from baseline
Experimental: In embodiments, the present disclosure provides a method for preventing migraine (such as a method for preventing migraine in patients having fewer than fifteen migraine days per month) wherein atogepant is administered in an amount of 10 mg QD, 30 mg QD, or 60 mg QD, wherein administration of atogepant results in a reduction in a 6-item Headache Impact Test (HIT-6) disability score relative to baseline. The Headache Impact Test (HIT-6) is a well-known tool for assessing migraine intensity, and uses six questions to measure the adverse impact of headache on, for example, social functioning, role functioning, vitality, cognitive functioning, and psychological distress. Responses are based on frequency using a 5-point verbal response scale ranging from “never” to “always”. The HIT-6 total score is the sum of the responses, and ranges from 36 to 78. See Yang et al., Validation of the Headache Impact Test (HIT-6™) Across Episodic and Chronic Migraine, Cephalalgia 2011 February; 31 (3): 357-367. In embodiments, treatment with atogepant results in a greater than five (≥5) point decrease in HIT-6 disability score.
The proportion of HIT-6 responders (≥5 points from baseline) were 59.92% and 80.77% of participants in the first (week 4) and last (week 52) timepoints assessed, respectively. A responder on the HIT-6 was defined as a participant with a ≥5 point improvement from baseline.

## C[C@@H]1[C@H](c2c(F)ccc(F)c2F)C[C@H](NC(=O)c2cnc3c(c2)C[C@@]2(C3)C(=O)Nc3ncccc32)C(=O)N1CC(F)(F)F [atogepant]
[1]; 10 mg QD
  ALT or AST >=1 * ULN, n/N1 (%): (8.6) %
  ALT or AST >=1.5 * ULN, n/N1 (%): (1.4) %
  ALT or AST >=2 * ULN, n/N1 (%): (0.9) %
  ALT or AST >=5 * ULN, n/N1 (%): (0.5) %
  ALT or AST >=10 * ULN, n/N1 (%): (0.5) %
  ALT or AST >=20 * ULN, n/N1: 0
  Potential Hy's Law (ALT or AST >= 3 * ULN AND Bilirubin Total >= 2 * ULN AND ALP < 2 * ULN), n/N1: 0
[1]; 30 mg QD
  ALT or AST >=1 * ULN, n/N1 (%): (8.0) %
  ALT or AST >=1.5 * ULN, n/N1 (%): (3.1) %
  ALT or AST >=2 * ULN, n/N1 (%): (0.9) %
  ALT or AST >=5 * ULN, n/N1 (%): (0.4) %
  ALT or AST >=10 * ULN, n/N1 (%): 0%
  ALT or AST >=20 * ULN, n/N1: 0
  Potential Hy's Law (ALT or AST >= 3 * ULN AND Bilirubin Total >= 2 * ULN AND ALP < 2 * ULN), n/N1: 0
[1]; 60 mg QD
  ALT or AST >=1 * ULN, n/N1 (%): (12.3) %
  ALT or AST >=1.5 * ULN, n/N1 (%): (3.1) %
  ALT or AST >=2 * ULN, n/N1 (%): (1.8) %
  ALT or AST >=5 * ULN, n/N1 (%): (0.4) %
  ALT or AST >=10 * ULN, n/N1 (%): 0%
  ALT or AST >=20 * ULN, n/N1: 0
  Potential Hy's Law (ALT or AST >= 3 * ULN AND Bilirubin Total >= 2 * ULN AND ALP < 2 * ULN), n/N1: 0
[2]; week 4
  HIT-6 total score, LS mean change (95% confidence interval): −7.63
  proportion of HIT-6 responders (≥5 points from baseline): 59.92%
[2]; week 52
  HIT-6 total score, LS mean change (95% confidence interval): −12.10
  proportion of HIT-6 responders (≥5 points from baseline): 80.77%
[2]; Week 4
  Change from Baseline in HIT-6 Total Score, LS Mean Δ from baseline: −7.63
  HIT-6 Total Score Responder Rates, % Responder: 59.92%
[2]; Week 8
  Change from Baseline in HIT-6 Total Score, LS Mean Δ from baseline: −9.14
  HIT-6 Total Score Responder Rates, % Responder: 66.60%
[2]; Week 12
  Change from Baseline in HIT-6 Total Score, LS Mean Δ from baseline: −6.60
  HIT-6 Total Score Responder Rates, % Responder: 69.21%
[2]; Week 16
  Change from Baseline in HIT-6 Total Score, LS Mean Δ from baseline: −10.15
  HIT-6 Total Score Responder Rates, % Responder: 71.65%
[2]; Week 20
  Change from Baseline in HIT-6 Total Score, LS Mean Δ from baseline: −10.56
  HIT-6 Total Score Responder Rates, % Responder: 73.98%
[2]; Week 24
  Change from Baseline in HIT-6 Total Score, LS Mean Δ from baseline: −10.55
  HIT-6 Total Score Responder Rates, % Responder: 74.00%
[2]; Week 28
  Change from Baseline in HIT-6 Total Score, LS Mean Δ from baseline: −10.99
  HIT-6 Total Score Responder Rates, % Responder: 76.56%
[2]; Week 32
  Change from Baseline in HIT-6 Total Score, LS Mean Δ from baseline: −11.15
  HIT-6 Total Score Responder Rates, % Responder: 77.89%
[2]; Week 36
  Change from Baseline in HIT-6 Total Score, LS Mean Δ from baseline: −11.29
  HIT-6 Total Score Responder Rates, % Responder: 75.62%
[2]; Week 40
  Change from Baseline in HIT-6 Total Score, LS Mean Δ from baseline: −11.76
  HIT-6 Total Score Responder Rates, % Responder: 80.71%
[2]; Week 44
  Change from Baseline in HIT-6 Total Score, LS Mean Δ from baseline: −11.46
  HIT-6 Total Score Responder Rates, % Responder: 78.39%
[2]; Week 48
  Change from Baseline in HIT-6 Total Score, LS Mean Δ from baseline: −11.86
  HIT-6 Total Score Responder Rates, % Responder: 80.11%
[2]; Week 52
  Change from Baseline in HIT-6 Total Score, LS Mean Δ from baseline: −12.10
  HIT-6 Total Score Responder Rates, % Responder: 80.77%
